Experimental data reported in patent publication US6914045B2, “Glycopeptide antibiotics” (Wyeth Holdings Corporation, priority 2001, dated 2005).
Converted amounts (≈) assume the structure as drawn.

Experiments:
Assay in all cases: in vitro antibacterial evaluation, MIC by broth dilution
Assay type in all cases: cell-based
Streptococcus sp. = conditions: broth dilution, 18 hours at 35° C.; for MIC Streptococcus pneumoniae (ATCC 6301): strain ATCC 6301; for MIC Streptococcus pneumoniae (GC 1894): strain GC 1894; for MIC Streptococcus pyogenes (GC 4563): strain GC 4563; for MIC Streptococcus agalactiae (GC 4564): strain GC 4564; for MIC Streptococcus pneumoniae (GC 4565): strain GC 4565
Method: (§1) Methods for in vitro Antibacterial Evaluation (Table 1)
(§2) The minimum inhibitory concentration (MIC), the lowest concentration of the antibiotic which inhibits growth of the test organism, is determined by the broth dilution method using Muller-Hinton II […] (Baltimore Biological Laboratories) following the recommendations of the National Committee for Clinical Laboratory Standards [Methods for dilution antimicrobial susceptibility tests for bacteria that grow aerobically, approved standard M7-A2, National Committee for Clinical Laboratory Standards, Villanova, Pa.].
(§3) An inoculum level of 5×10^5 CFU/mL, and a range of antibiotic concentrations (64-0.06 μg/mL) is used. […] The test organisms include a spectrum of Gram-positive bacteria comprised of Staphylococcus sp., Streptococcus sp. and Enterococcus sp. These organisms include recent clinical isolates that are resistant to methicillin, penicillin and/or vancomycin.

Enterococcus sp. = conditions: broth dilution, 18 hours at 35° C.; for MIC Enterococcus faecalis (ATCC 29212): strain ATCC 29212; for MIC Enterococcus faecalis (GC 2242): strain GC 2242; for MIC Enterococcus faecium (GC 2243): strain GC 2243; for MIC Enterococcus faecalis (GC 2691): strain GC 2691; for MIC Enterococcus faecalis (GC 3059): strain GC 3059; for MIC Enterococcus faecalis (GC 4552): strain GC 4552; for MIC Enterococcus faecalis (GC 4553): strain GC 4553; for MIC Enterococcus faecalis (GC 4554): strain GC 4554; for MIC Enterococcus faecium (GC 4556): strain GC 4556; for MIC Enterococcus faecium (GC 4557): strain GC 4557; for MIC Enterococcus avium (GC 4558): strain GC 4558; for MIC Enterococcus faecalis (GC 6189): strain GC 6189
Method: as §1, §2, §3

Staphylococcus sp. = conditions: broth dilution, 18 hours at 35° C.; for MIC Staphylococcus aureus (ATCC 29213): strain ATCC 29213; for MIC Staphylococcus aureus (GC 1131): strain GC 1131; for MIC Staphylococcus aureus (GC 3051): strain GC 3051; for MIC Staphylococcus aureus (GC 3053): strain GC 3053; for MIC Staphylococcus aureus (GC 4541): strain GC 4541; for MIC Staphylococcus aureus (GC 4542): strain GC 4542; for MIC Staphylococcus aureus-SMITH (GC 4543): strain GC 4543; for MIC Staphylococcus aureus (GC 4544): strain GC 4544; for MIC Staphylococcus aureus (GC 4545): strain GC 4545; for MIC Staphylococcus haemolyticus (GC 4546): strain GC 4546; for MIC Coagulase Negative Staphylococcus (GC 4547): strain GC 4547; for MIC Coagulase Negative Staphylococcus (GC 4548): strain GC 4548; for MIC Coagulase Negative Staphylococcus (GC 4549): strain GC 4549; for MIC Coagulase Negative Staphylococcus (GC 4551): strain GC 4551; for MIC Coagulase Negative Staphylococcus (GC 6257): strain GC 6257
Method: as §1, §2, §3

Escherichia coli = conditions: broth dilution, 18 hours at 35° C.; for MIC Escherichia coli (ATCC 25922): strain ATCC 25922; for MIC Escherichia coli (GC 4559): strain GC 4559; for MIC Escherichia coli (GC 4560): strain GC 4560
Summary of the method: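 Broth dilution in Muller-Hinton II medium per NCCLS standard M7-A2, with an inoculum of 5×10^5 CFU/mL and antibiotic tested over 64-0.06 μg/mL. MIC was taken as the lowest concentration inhibiting visible growth.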

SMILES	MIC Streptococcus pneumoniae (ATCC 6301) (Streptococcus sp.)	MIC Streptococcus pneumoniae (GC 1894) (Streptococcus sp.)	MIC Streptococcus pyogenes (GC 4563) (Streptococcus sp.)	MIC Streptococcus agalactiae (GC 4564) (Streptococcus sp.)	MIC Streptococcus pneumoniae (GC 4565) (Streptococcus sp.)	MIC Enterococcus faecalis (ATCC 29212) (Enterococcus sp.)	MIC Enterococcus faecalis (GC 2242) (Enterococcus sp.)	MIC Enterococcus faecium (GC 2243) (Enterococcus sp.)	MIC Enterococcus faecalis (GC 2691) (Enterococcus sp.)	MIC Enterococcus faecalis (GC 3059) (Enterococcus sp.)	MIC Enterococcus faecalis (GC 4552) (Enterococcus sp.)	MIC Enterococcus faecalis (GC 4553) (Enterococcus sp.)	MIC Enterococcus faecalis (GC 4554) (Enterococcus sp.)	MIC Enterococcus faecium (GC 4556) (Enterococcus sp.)	MIC Enterococcus faecium (GC 4557) (Enterococcus sp.)	MIC Enterococcus avium (GC 4558) (Enterococcus sp.)	MIC Enterococcus faecalis (GC 6189) (Enterococcus sp.)	MIC Staphylococcus aureus (ATCC 29213) (Staphylococcus sp.)	MIC Staphylococcus aureus (GC 1131) (Staphylococcus sp.)	MIC Staphylococcus aureus (GC 3051) (Staphylococcus sp.)	further results
CC(C)C(=O)Nc1cc(CC2NC(=O)C(C(C)c3ccccc3)NC(=O)CNC(=O)C(CO)NC(=O)C(C(O)C3CNC(=N)N3C3OC(CO)C(O)C(O)C3O)NC(=O)C(C(O)C3CNC(=N)N3)NC2=O)ccc1O (stereo not drawn) [Example 15, Cyclo[glycyl-β-methylphenylalanyl-3-(2-methylpropanamido)tyrosyl-3-(2-iminoimidazolidin-4-yl)seryl-3-(3-hexopyranosyl-2-iminoimidazolidin-4-yl)serylseryl]]	>128 µg/mL	128 µg/mL (≈ 121 µM)	>128 µg/mL	128 µg/mL (≈ 121 µM)	64 µg/mL (≈ 60.6 µM)	>128 µg/mL	>128 µg/mL	>128 µg/mL	>128 µg/mL	>128 µg/mL	>128 µg/mL	>128 µg/mL	>128 µg/mL	>128 µg/mL	>128 µg/mL	128 µg/mL (≈ 121 µM)	>128 µg/mL	>128 µg/mL	>128 µg/mL	>128 µg/mL	MIC Staphylococcus aureus (GC 3053) (Staphylococcus sp.): >128 µg/mL; MIC Staphylococcus aureus (GC 4541) (Staphylococcus sp.): >128 µg/mL; MIC Staphylococcus aureus (GC 4542) (Staphylococcus sp.): >128 µg/mL; MIC Staphylococcus aureus-SMITH (GC 4543) (Staphylococcus sp.): >128 µg/mL; MIC Staphylococcus aureus (GC 4544) (Staphylococcus sp.): >128 µg/mL; MIC Staphylococcus aureus (GC 4545) (Staphylococcus sp.): >128 µg/mL; MIC Staphylococcus haemolyticus (GC 4546) (Staphylococcus sp.): >128 µg/mL; MIC Coagulase Negative Staphylococcus (GC 4547) (Staphylococcus sp.): >128 µg/mL; MIC Coagulase Negative Staphylococcus (GC 4548) (Staphylococcus sp.): >128 µg/mL; MIC Coagulase Negative Staphylococcus (GC 4549) (Staphylococcus sp.): >128 µg/mL; MIC Coagulase Negative Staphylococcus (GC 4551) (Staphylococcus sp.): >128 µg/mL; MIC Coagulase Negative Staphylococcus (GC 6257) (Staphylococcus sp.): >128 µg/mL; MIC Escherichia coli (ATCC 25922) (Escherichia coli): >128 µg/mL; MIC Escherichia coli (GC 4559) (Escherichia coli): >128 µg/mL; MIC Escherichia coli (GC 4560) (Escherichia coli): 128 µg/mL (≈ 121 µM)
CCCCCCC(=O)Nc1cc(CC2NC(=O)C(C(C)c3ccccc3)NC(=O)CNC(=O)C(CO)NC(=O)C(C(O)C3CNC(=N)N3C3OC(CO)C(O)C(O)C3O)NC(=O)C(C(O)C3CNC(=N)N3)NC2=O)ccc1O (stereo not drawn) [Example 16, Cyclo[glycyl-β-methylphenylalanyl-3-(heptanamido)tyrosyl-3-(2-iminoimidazolidin-4-yl)seryl-3-(3-hexopyranosyl-2-iminoimidazolidin-4-yl)serylseryl]]	128 µg/mL (≈ 117 µM)	64 µg/mL (≈ 58.3 µM)	16 µg/mL (≈ 14.6 µM)	64 µg/mL (≈ 58.3 µM)	128 µg/mL (≈ 117 µM)	>128 µg/mL	>128 µg/mL	128 µg/mL (≈ 117 µM)	>128 µg/mL	>128 µg/mL	>128 µg/mL	64 µg/mL (≈ 58.3 µM)	>128 µg/mL	>128 µg/mL	16 µg/mL (≈ 14.6 µM)	128 µg/mL (≈ 117 µM)	>128 µg/mL	128 µg/mL (≈ 117 µM)	128 µg/mL (≈ 117 µM)	128 µg/mL (≈ 117 µM)	MIC Staphylococcus aureus (GC 3053) (Staphylococcus sp.): 128 µg/mL (≈ 117 µM); MIC Staphylococcus aureus (GC 4541) (Staphylococcus sp.): 64 µg/mL (≈ 58.3 µM); MIC Staphylococcus aureus (GC 4542) (Staphylococcus sp.): 128 µg/mL (≈ 117 µM); MIC Staphylococcus aureus-SMITH (GC 4543) (Staphylococcus sp.): 64 µg/mL (≈ 58.3 µM); MIC Staphylococcus aureus (GC 4544) (Staphylococcus sp.): 128 µg/mL (≈ 117 µM); MIC Staphylococcus aureus (GC 4545) (Staphylococcus sp.): 32 µg/mL (≈ 29.1 µM); MIC Staphylococcus haemolyticus (GC 4546) (Staphylococcus sp.): 8 µg/mL (≈ 7.28 µM); MIC Coagulase Negative Staphylococcus (GC 4547) (Staphylococcus sp.): 16 µg/mL (≈ 14.6 µM); MIC Coagulase Negative Staphylococcus (GC 4548) (Staphylococcus sp.): 32 µg/mL (≈ 29.1 µM); MIC Coagulase Negative Staphylococcus (GC 4549) (Staphylococcus sp.): 4 µg/mL (≈ 3.64 µM); MIC Coagulase Negative Staphylococcus (GC 4551) (Staphylococcus sp.): 32 µg/mL (≈ 29.1 µM); MIC Coagulase Negative Staphylococcus (GC 6257) (Staphylococcus sp.): 8 µg/mL (≈ 7.28 µM); MIC Escherichia coli (ATCC 25922) (Escherichia coli): 32 µg/mL (≈ 29.1 µM); MIC Escherichia coli (GC 4559) (Escherichia coli): 32 µg/mL (≈ 29.1 µM); MIC Escherichia coli (GC 4560) (Escherichia coli): 8 µg/mL (≈ 7.28 µM)
CC(c1ccccc1)C1NC(=O)CNC(=O)C(CO)NC(=O)C(C(O)C2CNC(=N)N2C2OC(CO)C(O)C(O)C2O)NC(=O)C(C(O)C2CNC(=N)N2)NC(=O)C(Cc2ccc(O)c(NC(=O)c3ccccc3)c2)NC1=O (stereo not drawn) [Example 17, Cyclo[glycyl-β-methylphenylalanyl-3-(benzamido)tyrosyl-3-(2-iminoimidazolidin-4-yl)seryl-3-(3-hexopyranosyl-2-iminoimidazolidin-4-yl)serylseryl]]	>64 µg/mL	64 µg/mL (≈ 58.7 µM)	>64 µg/mL	>64 µg/mL	>64 µg/mL	>64 µg/mL	>64 µg/mL	>64 µg/mL	>64 µg/mL	>64 µg/mL	>64 µg/mL	>64 µg/mL	>64 µg/mL	64 µg/mL (≈ 58.7 µM)	64 µg/mL (≈ 58.7 µM)	64 µg/mL (≈ 58.7 µM)	>64 µg/mL	>64 µg/mL	>64 µg/mL	>64 µg/mL	MIC Staphylococcus aureus (GC 3053) (Staphylococcus sp.): >64 µg/mL; MIC Staphylococcus aureus (GC 4541) (Staphylococcus sp.): >64 µg/mL; MIC Staphylococcus aureus (GC 4542) (Staphylococcus sp.): >64 µg/mL; MIC Staphylococcus aureus-SMITH (GC 4543) (Staphylococcus sp.): >64 µg/mL; MIC Staphylococcus aureus (GC 4544) (Staphylococcus sp.): >64 µg/mL; MIC Staphylococcus aureus (GC 4545) (Staphylococcus sp.): >64 µg/mL; MIC Staphylococcus haemolyticus (GC 4546) (Staphylococcus sp.): >64 µg/mL; MIC Coagulase Negative Staphylococcus (GC 4547) (Staphylococcus sp.): 64 µg/mL (≈ 58.7 µM); MIC Coagulase Negative Staphylococcus (GC 4548) (Staphylococcus sp.): >64 µg/mL; MIC Coagulase Negative Staphylococcus (GC 4549) (Staphylococcus sp.): 32 µg/mL (≈ 29.4 µM); MIC Coagulase Negative Staphylococcus (GC 4551) (Staphylococcus sp.): >64 µg/mL; MIC Coagulase Negative Staphylococcus (GC 6257) (Staphylococcus sp.): 64 µg/mL (≈ 58.7 µM); MIC Escherichia coli (ATCC 25922) (Escherichia coli): 64 µg/mL (≈ 58.7 µM); MIC Escherichia coli (GC 4559) (Escherichia coli): 32 µg/mL (≈ 29.4 µM); MIC Escherichia coli (GC 4560) (Escherichia coli): 16 µg/mL (≈ 14.7 µM)
